From paper PMC4374867, “The Novel Tubulin Polymerization Inhibitor MHPT Exhibits Selective Anti-Tumor Activity against Rhabdomyosarcoma In Vitro and In Vivo” (PLoS ONE, 2015)

Tested on: T1, tubulin (alpha- and beta-tubulin)
T1 construct: with alpha-/beta-tubulin heterodimer
Experiment: cell-free fluorescence-based tubulin polymerization assay (Cytoskeleton BK011P)
Format: biochemical, Bos taurus

## COc1cccc(C=C2SC(=Nc3ccc(O)cc3)NC2=O)c1 [MHPT, 2-((4-hydroxyphenyl)imino)-5-(3-methoxybenzylidene)thiazolidin-4-one]
  IC50: 6.28 µM
